From ChEMBL document CHEMBL5614431, “Discovery of 1,3,4-oxadiazoles with slow-action activity against Plasmodium falciparum malaria parasites” (Eur J Med Chem, 2024)

test system: not listed separately; experiment: Selectivity ratio of IC50 for antimalarial activity against synchronous ring stage Plasmodium falciparum 3D7 infected in human Erythrocyte assessed as inhibition of parasite growth incubated for 48 hrs by [3H]-hypoxanthine incorporation assay to IC50 for antimalarial activity against synchronous ring stage Plasmodium falciparum 3D7 infected in human Erythrocyte assessed as inhibition of parasite growth incubated for 48 hrs by [3H]-hypoxanthine incorporation assay; type: functional; details: not given

Going from `O=S(=O)(c1nnc(N2CCC(C(F)(F)F)CC2)o1)C1CCCCC1` to `O=S(=O)(c1nnc(N2CCNCC2)o1)C1CCCCC1`, the “Ratio IC50” value falls from 61 to 16.

Compared with `Cc1ccc(C)c(C[S+]([O-])c2nnc(N3CCOCC3)o2)c1` (stereo unspecified), `O=S(=O)(Cc1ccc(Cl)c(Cl)c1)c1nnc(N2CCOCC2)o1` is higher in “Ratio IC50” value: 1 for the first, 1.6 for the second.

First: CC1(C)CCCN(c2nnc(S(=O)(=O)C3CCCCC3)o2)C1
Second: O=S(=O)(c1nnc(N2CCCCO2)o1)C1CCCCC1
The “Ratio IC50” value of the first is higher: 527 for the first, 0.4 for the second.

Going from `O=S(=O)(CC12CC3CC(CC(C3)C1)C2)c1nnc(N2CCCCC2)o1` to `O=S(=O)(CC1(C(F)(F)F)CCC1)c1nnc(N2CCOCC2)o1`, the “Ratio IC50” value falls from 35 to 4.

With `COC1CCN(c2nnc(S(=O)(=O)C3CCCCC3)o2)CC1` the “Ratio IC50” value was greater than 72.
For `CC1(C)CCN(c2nnc(S(=O)(=O)C3CCCCC3)o2)CC1`, the “Ratio IC50” value was greater than 171.
With `O=S(=O)(c1nnc(N2CCOCC2)o1)C1CC2CCC1C2` (racemic) the “Ratio IC50” value was greater than 36.
With `O=S(=O)(c1nnc(N2CC3(CCOCC3)C2)o1)C1CCCCC1` the “Ratio IC50” value was greater than 476.
With `O=S(=O)(CC1(C(F)(F)F)CC1)c1nnc(N2CCOCC2)o1` the “Ratio IC50” value was greater than 4.
In the case of `CC(=O)N1CCN(c2nnc(S(=O)(=O)C3CCCCC3)o2)CC1`, the “Ratio IC50” value is reported as greater than 34.
In the case of `CC1CC(C)CN(c2nnc(S(=O)(=O)C3CCCCC3)o2)C1` (mixture of isomers), the “Ratio IC50” value is reported as greater than 403.
For `CN1CCN(c2nnc(S(=O)(=O)C3CCCCC3)o2)CC1`, the “Ratio IC50” value was greater than 19.
For `CC1CCCN(c2nnc(S(=O)(=O)C3CCCCC3)o2)C1` (racemic), the “Ratio IC50” value was greater than 125.
For `O=S(=O)(c1nnc(N2CCC(c3ccccc3)CC2)o1)C1CCCCC1`, the “Ratio IC50” value was greater than 7.
With `O=S(=O)(c1nnc(N2CCN(CC(F)(F)F)CC2)o1)C1CCCCC1` the “Ratio IC50” value was greater than 11.

test system: not listed separately; experiment: Cytotoxicity against human NFF cells assessed as reduction in cell viability incubated for 72 hrs by SRB assay; type: toxicity, cell-based; details: not given

`O=S(=O)(c1nnc(N2CCC(C(F)(F)F)CC2)o1)C1CCCCC1` and `COC1CCN(c2nnc(S(=O)(=O)C3CCCCC3)o2)CC1` cannot be ordered by IC50 at 72 h: greater than 100 µM for the first, greater than 100 µM for the second.

`CC1(C)CCN(c2nnc(S(=O)(=O)C3CCCCC3)o2)CC1` and `CC1(C)CCCN(c2nnc(S(=O)(=O)C3CCCCC3)o2)C1` cannot be ordered by IC50 at 72 h: greater than 100 µM for the first, greater than 100 µM for the second.

`O=S(=O)(c1nnc(N2CCOCC2)o1)C1CC2CCC1C2` (racemic) and `O=S(=O)(c1nnc(N2CC3(CCOCC3)C2)o1)C1CCCCC1` cannot be ordered by IC50 at 72 h: greater than 100 µM for the first, greater than 100 µM for the second.

First: O=S(=O)(CC12CC3CC(CC(C3)C1)C2)c1nnc(N2CCCCC2)o1
Second: CC1CCCN(c2nnc(S(=O)(=O)C3CCCCC3)o2)C1 (racemic)
The IC50 at 72 h of the first is lower: 30.5 µM for the first, greater than 100 µM for the second.

`CC(=O)N1CCN(c2nnc(S(=O)(=O)C3CCCCC3)o2)CC1` and `CC1CC(C)CN(c2nnc(S(=O)(=O)C3CCCCC3)o2)C1` (mixture of isomers) cannot be ordered by IC50 at 72 h: greater than 100 µM for the first, greater than 100 µM for the second.

test system: Plasmodium falciparum; experiment: Antimalarial activity against synchronous ring stage Plasmodium falciparum 3D7 infected in human Erythrocyte assessed as inhibition of parasite growth incubated for 96 hrs by [3H]-hypoxanthine incorporation assay; type: functional, organism-based; details: 3D7, Erythrocyte

Going from `O=S(=O)(c1nnc(N2CCOCC2)s1)C1CCCCC1` to `O=S(=O)(c1nnc(N2CCNCC2)o1)C1CCCCC1`, the IC50 falls from greater than 50 µM to 3.58 µM.

Compared with `O=S(=O)(c1nnc(N2CCC(C(F)(F)F)CC2)o1)C1CCCCC1`, `COC1CCN(c2nnc(S(=O)(=O)C3CCCCC3)o2)CC1` is 1.9-fold higher in IC50: 0.37 µM for the first, 0.69 µM for the second. The first is the more potent here.

Going from `Cc1ccc(C)c(C[S+]([O-])c2nnc(N3CCOCC3)o2)c1` (stereo unspecified) to `Cc1ccc(C)c(CSc2nnc(N3CCOCC3)o2)c1`, the IC50 rises from 13.7 µM to greater than 50 µM.

Going from `CC1(C)CCN(c2nnc(S(=O)(=O)C3CCCCC3)o2)CC1` to `CC1(C)CCCN(c2nnc(S(=O)(=O)C3CCCCC3)o2)C1`, the IC50 falls from 0.15 µM to 0.04 µM (3.8-fold).

Going from `O=S(=O)(c1nnc(N2CCOCC2)o1)C1CC2CCC1C2` (racemic) to `O=S(=O)(CC1(C(F)(F)F)CCC1)c1nnc(N2CCOCC2)o1`, the IC50 rises from 0.28 µM to 4.3 µM (15-fold). The first is the more potent here.

`O=S(=O)(c1nnc(N2CC3(CCOCC3)C2)o1)C1CCCCC1` and `CC1CCCN(c2nnc(S(=O)(=O)C3CCCCC3)o2)C1` (racemic) are within 1.5-fold of each other in IC50: 0.11 µM for the first, 0.1 µM for the second.

`O=S(=O)(Cc1ccc(Cl)c(Cl)c1)c1nnc(N2CCOCC2)o1` and `O=S(=O)(CC1(C(F)(F)F)CC1)c1nnc(N2CCOCC2)o1` are within 1.5-fold of each other in IC50: 4.2 µM for the first, 3.19 µM for the second.

Compared with `O=S(=O)(c1nnc(N2CCCCO2)o1)C1CCCCC1`, `CN1CCN(c2nnc(S(=O)(=O)C3CCCCC3)o2)CC1` is 3.4-fold lower in IC50: 18.4 µM for the first, 5.4 µM for the second.

Compared with `O=S(=O)(CC12CC3CC(CC(C3)C1)C2)c1nnc(N2CCCCC2)o1`, `CC(=O)N1CCN(c2nnc(S(=O)(=O)C3CCCCC3)o2)CC1` is 3.6-fold higher in IC50: 0.4 µM for the first, 1.46 µM for the second. The first is the more potent here.

Going from `CC1CC(C)CN(c2nnc(S(=O)(=O)C3CCCCC3)o2)C1` (mixture of isomers) to `O=S(=O)(c1nnc(N2CCN(CC(F)(F)F)CC2)o1)C1CCCCC1`, the IC50 rises from 0.03 µM to 2.35 µM (78-fold). The first is the more potent here.

Work on `O=S(=O)(c1nnc(N2CCC(c3ccccc3)CC2)o1)C1CCCCC1` yielded an IC50 of 13.5 µM.

test system: Plasmodium falciparum; experiment: Antimalarial activity against synchronous ring stage Plasmodium falciparum 3D7 infected in human Erythrocyte assessed as inhibition of parasite growth incubated for 48 hrs by [3H]-hypoxanthine incorporation assay; type: functional, organism-based; details: 3D7, Erythrocyte

`O=S(=O)(c1nnc(N2CCOCC2)s1)C1CCCCC1` and `O=S(=O)(c1nnc(N2CCNCC2)o1)C1CCCCC1` cannot be ordered by IC50: greater than 50 µM for the first, 57.9 µM for the second.

Going from `O=S(=O)(c1nnc(N2CCC(C(F)(F)F)CC2)o1)C1CCCCC1` to `COC1CCN(c2nnc(S(=O)(=O)C3CCCCC3)o2)CC1`, the IC50 rises from 22.1 µM to greater than 50 µM.

Compared with `Cc1ccc(C)c(C[S+]([O-])c2nnc(N3CCOCC3)o2)c1` (stereo unspecified), `Cc1ccc(C)c(CSc2nnc(N3CCOCC3)o2)c1` is higher in IC50: 16.8 µM for the first, greater than 50 µM for the second.

Compared with `CC1(C)CCN(c2nnc(S(=O)(=O)C3CCCCC3)o2)CC1`, `CC1(C)CCCN(c2nnc(S(=O)(=O)C3CCCCC3)o2)C1` is lower in IC50: greater than 25 µM for the first, 21.1 µM for the second.

`O=S(=O)(c1nnc(N2CCOCC2)o1)C1CC2CCC1C2` (racemic) and `O=S(=O)(CC1(C(F)(F)F)CCC1)c1nnc(N2CCOCC2)o1` cannot be ordered by IC50: greater than 10 µM for the first, 17 µM for the second.

`O=S(=O)(c1nnc(N2CC3(CCOCC3)C2)o1)C1CCCCC1` and `CC1CCCN(c2nnc(S(=O)(=O)C3CCCCC3)o2)C1` (racemic) cannot be ordered by IC50: greater than 50 µM for the first, greater than 12.5 µM for the second.

Going from `O=S(=O)(Cc1ccc(Cl)c(Cl)c1)c1nnc(N2CCOCC2)o1` to `O=S(=O)(CC1(C(F)(F)F)CC1)c1nnc(N2CCOCC2)o1`, the IC50 rises from 6.6 µM to greater than 12.5 µM. The first is the more potent here.

Going from `O=S(=O)(c1nnc(N2CCCCO2)o1)C1CCCCC1` to `CN1CCN(c2nnc(S(=O)(=O)C3CCCCC3)o2)CC1`, the IC50 rises from 8.24 µM to greater than 100 µM. The first is the more potent here.

Going from `O=S(=O)(CC12CC3CC(CC(C3)C1)C2)c1nnc(N2CCCCC2)o1` to `CC(=O)N1CCN(c2nnc(S(=O)(=O)C3CCCCC3)o2)CC1`, the IC50 rises from 13.7 µM to greater than 50 µM.

`CC1CC(C)CN(c2nnc(S(=O)(=O)C3CCCCC3)o2)C1` (mixture of isomers) and `O=S(=O)(c1nnc(N2CCN(CC(F)(F)F)CC2)o1)C1CCCCC1` cannot be ordered by IC50: greater than 12.5 µM for the first, greater than 25 µM for the second.

`O=S(=O)(c1nnc(N2CCC(c3ccccc3)CC2)o1)C1CCCCC1` gave an IC50 greater than 100 µM.

test system: not listed separately; experiment: Selectivity index, ratio of IC50 for cytotoxicity against human NFF cells to IC50 for antimalarial activity against synchronous ring stage Plasmodium falciparum 3D7 infected in human Erythrocyte assessed as inhibition of parasite growth incubated for 96 hrs; type: toxicity, cell-based; details: read-out: Ratio IC50

`O=S(=O)(c1nnc(N2CCC(C(F)(F)F)CC2)o1)C1CCCCC1` and `COC1CCN(c2nnc(S(=O)(=O)C3CCCCC3)o2)CC1` cannot be ordered by selectivity ratio at 96 h: greater than 270 for the first, greater than 145 for the second.

`CC1(C)CCN(c2nnc(S(=O)(=O)C3CCCCC3)o2)CC1` and `CC1(C)CCCN(c2nnc(S(=O)(=O)C3CCCCC3)o2)C1` cannot be ordered by selectivity ratio at 96 h: greater than 1080 for the first, greater than 2500 for the second.

`O=S(=O)(c1nnc(N2CCOCC2)o1)C1CC2CCC1C2` (racemic) and `O=S(=O)(c1nnc(N2CC3(CCOCC3)C2)o1)C1CCCCC1` cannot be ordered by selectivity ratio at 96 h: greater than 377 for the first, greater than 909 for the second.

First: O=S(=O)(CC12CC3CC(CC(C3)C1)C2)c1nnc(N2CCCCC2)o1
Second: CC1CCCN(c2nnc(S(=O)(=O)C3CCCCC3)o2)C1 (racemic)
The selectivity ratio at 96 h of the first is lower: 76 for the first, greater than 1000 for the second.

`CC(=O)N1CCN(c2nnc(S(=O)(=O)C3CCCCC3)o2)CC1` and `CC1CC(C)CN(c2nnc(S(=O)(=O)C3CCCCC3)o2)C1` (mixture of isomers) cannot be ordered by selectivity ratio at 96 h: greater than 69 for the first, greater than 4000 for the second.
